{"source": "patent US20130209543A1", "about": "“ENHANCED TREATMENT REGIMENS USING MTOR INHIBITORS” (Intellikine LLC, priority 2011, published 2013)", "assay": "Phase I clinical trial: grade 3 or greater treatment-emergent adverse events (Table 9)", "type": "in vivo", "description": "Adult patients with histologically confirmed advanced solid tumors were enrolled in a 3+3 dose escalation Phase I study evaluating 3 intermittent schedules of administration for compound A: QW (once weekly), QD×3d QW (3 days on 4 days off), and QD×5d QW (5 days on 2 days off), in comparison with daily dosing (QD). Safety, maximum tolerated dose (MTD), pharmacokinetics (PK) and preliminary antitumor activity were evaluated.\nPharmacodynamic (PD) endpoints were evaluated in surrogate (peripheral blood cells [PBCs], skin) and tumor tissues for the phosphorylation of TORC1-dependent markers (4EBP1/S6), and TORC2-dependent markers (AKT/PRAS40). 50 patients were treated in 3 intermittent dosing regimens; 21 in 6 cohorts ranging 7-40 mg QW, 20 in 5 cohorts ranging 6-20 mg QD×3d QW, and 9 in 3 cohorts ranging 7-13 mg QD×5d QW. […] The MTD for intermittent dosing was not reached. All adverse events (AEs) reported were reversible. The most common (≧20%, n=35) AEs considered possibly related to compound A reported in all 3 dosing regimens included nausea (51%), hyperglycemia (37%), mucosal inflammation (29%), rash (23%), asthenia (23%), vomiting (26%), and diarrhea (20%). The majority of AEs considered possibly related to compound A in any regimen were Grade 1 or 2. The only reported Grade≧3 AE (≧5%) possibly related to compound A in 3 regimens was lymphopenia (6%). Tables 4-9 show summaries of observed adverse events for various treatment regimens of the invention.", "data": [{"compound": "CC(C)n1nc(-c2ccc3oc(N)nc3c2)c2c(N)ncnc21", "note": "[compound A]", "values": [{"measurement": "Asthenia, grade 3 or greater TEAE", "setting": "Total QDx5d QW, N = 6", "result": "0 (0%)"}, {"measurement": "Catheter related infection, Grade 3 or greater TEAE", "setting": "Total QDx5d QW, N = 6", "result": "0 (0%)"}, {"measurement": "Cellulitis, Grade 3 or greater TEAE", "setting": "Total QDx5d QW, N = 6", "result": "0 (0%)"}, {"measurement": "Diarrhoea, grade 3 or greater TEAE", "setting": "Total QDx5d QW, N = 6", "result": "0 (0%)"}, {"measurement": "Disease progression, grade 3 or greater TEAE", "setting": "Total QDx5d QW, N = 6", "result": "0 (0%)"}, {"measurement": "Enterocutaneous fistula, Grade 3 or greater TEAE", "setting": "Total QDx5d QW, N = 6", "result": "0 (0%)"}, {"measurement": "Gamma-glutamyltransferase increased, Grade 3 or greater TEAE", "setting": "Total QDx5d QW, N = 6", "result": "0 (0%)"}, {"measurement": "Gastroenteritis, Grade 3 or greater TEAE", "setting": "Total QDx5d QW, N = 6", "result": "0 (0%)"}, {"measurement": "Hyperglycaemia, grade 3 or greater TEAE", "setting": "Total QDx5d QW, N = 6", "result": "0 (0%)"}, {"measurement": "Hypokalaemia, grade 3 or greater TEAE", "setting": "Total QDx5d QW, N = 6", "result": "0 (0%)"}, {"measurement": "Hyponatraemia, grade 3 or greater TEAE", "setting": "Total QDx5d QW, N = 6", "result": "0 (0%)"}, {"measurement": "Lymphopenia, grade 3 or greater TEAE", "setting": "Total QDx5d QW, N = 6", "result": "0 (0%)"}, {"measurement": "Pancreatitis acute, Grade 3 or greater TEAE", "setting": "Total QDx5d QW, N = 6", "result": "0 (0%)"}, {"measurement": "Patients Reporting at Least One Grade 3 or Greater TEAE", "setting": "Total QDx5d QW, N = 6", "result": "0 (0%)"}, {"measurement": "Pleural effusion, Grade 3 or greater TEAE", "setting": "Total QDx5d QW, N = 6", "result": "0 (0%)"}, {"measurement": "Pruritus, grade 3 or greater TEAE", "setting": "Total QDx5d QW, N = 6", "result": "0 (0%)"}, {"measurement": "Rash macular, Grade 3 or greater TEAE", "setting": "Total QDx5d QW, N = 6", "result": "0 (0%)"}, {"measurement": "Rash, grade 3 or greater TEAE", "setting": "Total QDx5d QW, N = 6", "result": "0 (0%)"}, {"measurement": "Somnolence, Grade 3 or greater TEAE", "setting": "Total QDx5d QW, N = 6", "result": "0 (0%)"}, {"measurement": "Thrombocytopenia, grade 3 or greater TEAE", "setting": "Total QDx5d QW, N = 6", "result": "0 (0%)"}, {"measurement": "Urinary tract infection, Grade 3 or greater TEAE", "setting": "Total QDx5d QW, N = 6", "result": "0 (0%)"}, {"measurement": "Abdominal pain upper, Grade 3 or greater TEAE", "setting": "Total QW Dosing, N = 15", "result": "0 (0%)"}, {"measurement": "Anaemia, grade 3 or greater TEAE", "setting": "Total QW Dosing, N = 15", "result": "0 (0%)"}, {"measurement": "Aspartate aminotransferase increased, Grade 3 or greater TEAE", "setting": "Total QW Dosing, N = 15", "result": "1 (7%)"}, {"measurement": "Asthenia, grade 3 or greater TEAE", "setting": "Total QW Dosing, N = 15", "result": "0 (0%)"}, {"measurement": "Catheter related infection, Grade 3 or greater TEAE", "setting": "Total QW Dosing, N = 15", "result": "0 (0%)"}, {"measurement": "Cellulitis, Grade 3 or greater TEAE", "setting": "Total QW Dosing, N = 15", "result": "0 (0%)"}, {"measurement": "Diarrhoea, grade 3 or greater TEAE", "setting": "Total QW Dosing, N = 15", "result": "1 (7%)"}, {"measurement": "Disease progression, grade 3 or greater TEAE", "setting": "Total QW Dosing, N = 15", "result": "0 (0%)"}, {"measurement": "Enterocutaneous fistula, Grade 3 or greater TEAE", "setting": "Total QW Dosing, N = 15", "result": "0 (0%)"}, {"measurement": "Gamma-glutamyltransferase increased, Grade 3 or greater TEAE", "setting": "Total QW Dosing, N = 15", "result": "1 (7%)"}, {"measurement": "Gastroenteritis, Grade 3 or greater TEAE", "setting": "Total QW Dosing, N = 15", "result": "0 (0%)"}, {"measurement": "Hyperglycaemia, grade 3 or greater TEAE", "setting": "Total QW Dosing, N = 15", "result": "0 (0%)"}, {"measurement": "Hypokalaemia, grade 3 or greater TEAE", "setting": "Total QW Dosing, N = 15", "result": "0 (0%)"}, {"measurement": "Hyponatraemia, grade 3 or greater TEAE", "setting": "Total QW Dosing, N = 15", "result": "0 (0%)"}, {"measurement": "Lymphopenia, grade 3 or greater TEAE", "setting": "Total QW Dosing, N = 15", "result": "1 (7%)"}, {"measurement": "Pancreatitis acute, Grade 3 or greater TEAE", "setting": "Total QW Dosing, N = 15", "result": "0 (0%)"}, {"measurement": "Patients Reporting at Least One Grade 3 or Greater TEAE", "setting": "Total QW Dosing, N = 15", "result": "3 (20%)"}, {"measurement": "Pleural effusion, Grade 3 or greater TEAE", "setting": "Total QW Dosing, N = 15", "result": "0 (0%)"}, {"measurement": "Pruritus, grade 3 or greater TEAE", "setting": "Total QW Dosing, N = 15", "result": "0 (0%)"}, {"measurement": "Rash macular, Grade 3 or greater TEAE", "setting": "Total QW Dosing, N = 15", "result": "0 (0%)"}, {"measurement": "Rash, grade 3 or greater TEAE", "setting": "Total QW Dosing, N = 15", "result": "0 (0%)"}, {"measurement": "Somnolence, Grade 3 or greater TEAE", "setting": "Total QW Dosing, N = 15", "result": "0 (0%)"}, {"measurement": "Thrombocytopenia, grade 3 or greater TEAE", "setting": "Total QW Dosing, N = 15", "result": "0 (0%)"}, {"measurement": "Urinary tract infection, Grade 3 or greater TEAE", "setting": "Total QW Dosing, N = 15", "result": "0 (0%)"}, {"measurement": "Abdominal pain upper, Grade 3 or greater TEAE", "setting": "Total, N = 60", "result": "1 (2%)"}, {"measurement": "Anaemia, grade 3 or greater TEAE", "setting": "Total, N = 60", "result": "1 (2%)"}, {"measurement": "Aspartate aminotransferase increased, Grade 3 or greater TEAE", "setting": "Total, N = 60", "result": "1 (2%)"}, {"measurement": "Asthenia, grade 3 or greater TEAE", "setting": "Total, N = 60", "result": "1 (2%)"}, {"measurement": "Catheter related infection, Grade 3 or greater TEAE", "setting": "Total, N = 60", "result": "1 (2%)"}, {"measurement": "Cellulitis, Grade 3 or greater TEAE", "setting": "Total, N = 60", "result": "1 (2%)"}, {"measurement": "Diarrhoea, grade 3 or greater TEAE", "setting": "Total, N = 60", "result": "3 (5%)"}, {"measurement": "Disease progression, grade 3 or greater TEAE", "setting": "Total, N = 60", "result": "1 (2%)"}, {"measurement": "Enterocutaneous fistula, Grade 3 or greater TEAE", "setting": "Total, N = 60", "result": "1 (2%)"}, {"measurement": "Gamma-glutamyltransferase increased, Grade 3 or greater TEAE", "setting": "Total, N = 60", "result": "2 (3%)"}, {"measurement": "Gastroenteritis, Grade 3 or greater TEAE", "setting": "Total, N = 60", "result": "1 (2%)"}, {"measurement": "Hyperglycaemia, grade 3 or greater TEAE", "setting": "Total, N = 60", "result": "5 (8%)"}, {"measurement": "Hypokalaemia, grade 3 or greater TEAE", "setting": "Total, N = 60", "result": "2 (3%)"}, {"measurement": "Hyponatraemia, grade 3 or greater TEAE", "setting": "Total, N = 60", "result": "2 (3%)"}, {"measurement": "Lymphopenia, grade 3 or greater TEAE", "setting": "Total, N = 60", "result": "4 (7%)"}, {"measurement": "Pancreatitis acute, Grade 3 or greater TEAE", "setting": "Total, N = 60", "result": "1 (2%)"}, {"measurement": "Pleural effusion, Grade 3 or greater TEAE", "setting": "Total, N = 60", "result": "1 (2%)"}, {"measurement": "Pruritus, grade 3 or greater TEAE", "setting": "Total, N = 60", "result": "2 (3%)"}, {"measurement": "Rash macular, Grade 3 or greater TEAE", "setting": "Total, N = 60", "result": "1 (2%)"}, {"measurement": "Rash, grade 3 or greater TEAE", "setting": "Total, N = 60", "result": "7 (12%)"}, {"measurement": "Somnolence, Grade 3 or greater TEAE", "setting": "Total, N = 60", "result": "1 (2%)"}, {"measurement": "Thrombocytopenia, grade 3 or greater TEAE", "setting": "Total, N = 60", "result": "2 (3%)"}, {"measurement": "Urinary tract infection, Grade 3 or greater TEAE", "setting": "Total, N = 60", "result": "1 (2%)"}]}]}
